Assay results taken from patent US7271165B2, “Rifamycin analogs and uses thereof” (priority 2003, dated 2007).
≈ marks a conversion by molar mass, not a printed value. Where two headings read alike, the source gives them in different places.

Assays:
E. faecalis = experiment: MIC assay, E. faecalis; assay type: cell-based, Enterococcus faecalis
H. flu = assay type: cell-based, H. influenza
E coli = experiment: MIC assay, E coli; assay type: cell-based
S. pneumo. = experiment: MIC assay, S. pneumo.; assay type: cell-based, Streptococcus pneumoniae
S. aureus = experiment: MIC assay, S. aureus; assay type: cell-based, Staphylococcus aureus

| SMILES | melting point | MIC (μg/mL) E. faecalis (E. faecalis) | MIC (μg/mL) H. flu (H. flu; H. flu) | MIC (μg/mL) E coli (E coli) | MIC (μg/mL) S. pneumo. (S. pneumo.) | MIC (μg/mL) S. aureus (S. aureus) | MIC (μg/mL) H. flu (H. flu) |
| --- | --- | --- | --- | --- | --- | --- | --- |
| CO[C@H]1/C=C/OC2(C)Oc3c(C)c(O)c4c(=O)c(c5oc6cc(N7CC8CC7CN8)cc(O)c6nc-5c4c3C2=O)NC(=O)/C(C)=C\C=C\[C@H](C)[C@H](O)[C@@H](C)[C@@H](O)[C@@H](C)[C@H](OC(C)=O)[C@@H]1C (some centres unmarked) | > 330 °C |  |  |  |  |  |  |
| CO[C@H]1/C=C/OC2(C)Oc3c(C)c(O)c4c(=O)c(c5oc6cc(N7CC8CCC7CN8)cc(O)c6nc-5c4c3C2=O)NC(=O)/C(C)=C\C=C\[C@H](C)[C@H](O)[C@@H](C)[C@@H](O)[C@@H](C)[C@H](OC(C)=O)[C@@H]1C (some centres unmarked) | > 300 °C |  |  |  |  |  |  |
| COC1C=COC2(C)Oc3c(C)c(O)c4c(=O)c(c5oc6cc(N7CCCC7)c(C7CCCCC7)cc6nc-5c4c3C2=O)NC(=O)C(C)=CC=CC(C)C(O)C(C)C(O)C(C)C(O)C1C (centres unmarked) [Compound 115] |  | >8 µg/mL | 8 µg/mL (≈ 8.95 µM) | >8 µg/mL | 0.25 µg/mL (≈ 0.28 µM) | 2 µg/mL (≈ 2.24 µM) |  |
| COC1C=COC2(C)Oc3c(C)c(O)c4c(=O)c(c5oc6cc(N7CCCC7)c(C)c(C)c6nc-5c4c3C2=O)NC(=O)C(C)=CC=CC(C)C(O)C(C)C(O)C(C)C(O)C1C (centres unmarked) [Compound 117] |  | 4 µg/mL (≈ 4.76 µM) | 1 µg/mL (≈ 1.19 µM) | >8 µg/mL | 0.06 µg/mL (≈ 0.0714 µM) | 0.5 µg/mL (≈ 0.595 µM) |  |
| COc1c(N2CCCC2)cc(C)c2nc3c4c5c6c(C)c(O)c4c(=O)c(c-3oc12)NC(=O)C(C)=CC=CC(C)C(O)C(C)C(O)C(C)C(O)C(C)C(OC)C=COC(C)(O6)C5=O (centres unmarked) [Compound 118] |  | 2 µg/mL (≈ 2.34 µM) | 0.12 µg/mL (≈ 0.14 µM) | 8 µg/mL (≈ 9.35 µM) | 0.03 µg/mL (≈ 0.035 µM) | 0.06 µg/mL (≈ 0.0701 µM) |  |
| COC1C=COC2(C)Oc3c(C)c(O)c4c(=O)c(c5oc6cc(N7CCC(F)C7)ccc6nc-5c4c3C2=O)NC(=O)C(C)=CC=CC(C)C(O)C(C)C(O)C(C)C(O)C1C (centres unmarked) [Compound 119] |  | 0.5 µg/mL (≈ 0.602 µM) | 0.06 µg/mL (≈ 0.0723 µM) | 4 µg/mL (≈ 4.82 µM) | 0.015 µg/mL (≈ 0.0181 µM) | 0.03 µg/mL (≈ 0.0361 µM) |  |
| COC1C=COC2(C)Oc3c(C)c(O)c4c(=O)c(c5oc6cc(N7CCCC7)c(F)cc6nc-5c4c3C2=O)NC(=O)C(C)=CC=CC(C)C(O)C(C)C(O)C(C)C(O)C1C (centres unmarked) [Compound 120] |  | 1 µg/mL (≈ 1.2 µM) | 0.12 µg/mL (≈ 0.145 µM) | 8 µg/mL (≈ 9.64 µM) | 0.06 µg/mL (≈ 0.0723 µM) | 0.03 µg/mL (≈ 0.0361 µM) |  |
| COC1C=COC2(C)Oc3c(C)c(O)c4c(=O)c(c5oc6cc(N7CCCN(C)CC7)cc(O)c6nc-5c4c3C2=O)NC(=O)C(C)=CC=CC(C)C(O)C(C)C(O)C(C)C(O)C1C (centres unmarked) [Compound 121] |  | 0.03 µg/mL (≈ 0.0344 µM) | 0.25 µg/mL (≈ 0.287 µM) | 4 µg/mL (≈ 4.59 µM) | 0.00012 µg/mL (≈ 0.000138 µM) | 0.004 µg/mL (≈ 0.00459 µM) |  |
| COC1C=COC2(C)Oc3c(C)c(O)c4c(=O)c(c5sc6cc(N7CCCN(C)CC7)ccc6nc-5c4c3C2=O)NC(=O)C(C)=CC=CC(C)C(O)C(C)C(O)C(C)C(O)C1C (centres unmarked) [Compound 122] |  | 0.25 µg/mL (≈ 0.287 µM) | 0.12 µg/mL (≈ 0.138 µM) | 2 µg/mL (≈ 2.3 µM) | 0.00025 µg/mL (≈ 0.000287 µM) | 0.002 µg/mL (≈ 0.0023 µM) |  |
| COC1C=COC2(C)Oc3c(C)c(O)c4c(=O)c(c5oc6cc(N(C)CC(C)C)cc(O)c6nc-5c4c3C2=O)NC(=O)C(C)=CC=CC(C)C(O)C(C)C(O)C(C)C(O)C1C (centres unmarked) [Compound 125] |  | 0.5 µg/mL (≈ 0.592 µM) | 0.5 µg/mL (≈ 0.592 µM) | >8 µg/mL | 0.002 µg/mL (≈ 0.00237 µM) | 0.015 µg/mL (≈ 0.0178 µM) |  |
| COC1C=COC2(C)Oc3c(C)c(O)c4c(=O)c(c5oc6cc(N(C)C7CCN(C)CC7)cc(O)c6nc-5c4c3C2=O)NC(=O)C(C)=CC=CC(C)C(O)C(C)C(O)C(C)C(O)C1C (centres unmarked) [Compound 126] |  | 0.5 µg/mL (≈ 0.565 µM) | 0.25 µg/mL (≈ 0.282 µM) | 4 µg/mL (≈ 4.52 µM) | 0.00025 µg/mL (≈ 0.000282 µM) | 0.004 µg/mL (≈ 0.00452 µM) |  |
| COC1C=COC2(C)Oc3c(C)c(O)c4c(=O)c(c5oc6cc(N(C)CCC#N)ccc6nc-5c4c3C2=O)NC(=O)C(C)=CC=CC(C)C(O)C(C)C(O)C(C)C(O)C1C (centres unmarked) [Compound 127] |  | 0.5 µg/mL (≈ 0.606 µM) | 0.12 µg/mL (≈ 0.145 µM) | 8 µg/mL (≈ 9.7 µM) | 0.008 µg/mL (≈ 0.0097 µM) | 0.06 µg/mL (≈ 0.0727 µM) |  |
| COC1C=COC2(C)Oc3c(C)c(O)c4c(=O)c(c5oc6cc(N7CCOCC7)cc(O)c6nc-5c4c3C2=O)NC(=O)C(C)=CC=CC(C)C(O)C(C)C(O)C(C)C(O)C1C (centres unmarked) [Compound 128] |  | 0.06 µg/mL (≈ 0.0711 µM) |  | >8 µg/mL | 0.00025 µg/mL (≈ 0.000296 µM) | 0.004 µg/mL (≈ 0.00474 µM) | 0.12 µg/mL (≈ 0.142 µM) |
| COC1C=COC2(C)Oc3c(C)c(O)c4c(=O)c(c5sc6cc(N7CCOCC7)ccc6nc-5c4c3C2=O)NC(=O)C(C)=CC=CC(C)C(O)C(C)C(O)C(C)C(O)C1C (centres unmarked) [Compound 129] |  | 0.5 µg/mL (≈ 0.592 µM) |  | 4 µg/mL (≈ 4.74 µM) | 0.001 µg/mL (≈ 0.00118 µM) | 0.015 µg/mL (≈ 0.0178 µM) | 0.06 µg/mL (≈ 0.0711 µM) |
| CO[C@H]1/C=C/O[C@@]2(C)Oc3c(C)c(O)c4c(=O)c(c5n(C)c6ccccc6nc-5c4c3C2=O)NC(=O)/C(C)=C\C=C\[C@H](C)[C@H](O)[C@@H](C)[C@@H](O)[C@@H](C)[C@H](O)[C@@H]1C [Compound 131] |  | 2 µg/mL (≈ 2.65 µM) |  | 8 µg/mL (≈ 10.6 µM) | 0.5 µg/mL (≈ 0.661 µM) | 0.5 µg/mL (≈ 0.661 µM) | 2 µg/mL (≈ 2.65 µM) |
| C=CCc1cc(C)cc2nc3c4c5c6c(C)c(O)c4c(=O)c(c-3oc12)NC(=O)C(C)=CC=CC(C)C(O)C(C)C(O)C(C)C(O)C(C)C(OC)C=COC(C)(O6)C5=O (centres unmarked) [Compound 132] |  | 2 µg/mL (≈ 2.51 µM) |  | >8 µg/mL | 0.03 µg/mL (≈ 0.0376 µM) | 0.06 µg/mL (≈ 0.0753 µM) | 0.5 µg/mL (≈ 0.627 µM) |
| CO[C@H]1/C=C/O[C@@]2(C)Oc3c(C)c(O)c4c(=O)c(c5oc6cccc(O)c6nc-5c4c3C2=O)NC(=O)/C(C)=C\C=C\[C@H](C)[C@H](O)[C@@H](C)[C@@H](O)[C@@H](C)[C@H](O)[C@@H]1C [Compound 133] |  | 0.12 µg/mL (≈ 0.158 µM) |  | 8 µg/mL (≈ 10.5 µM) | 0.002 µg/mL (≈ 0.00264 µM) | 0.004 µg/mL (≈ 0.00527 µM) | 0.25 µg/mL (≈ 0.329 µM) |
